{
  "source": "paper PMC10485095",
  "about": "“Structure and enzymatic characterization of CelD endoglucanase from the anaerobic fungus Piromyces finnis” (Applied Microbiology and Biotechnology, 2023)",
  "biological_target": "T1, CelD GH5 catalytic domain (construct 91–452) (Piromyces finnis, UniProt A0A1Y1V643)",
  "T1 construct": "gene BCR36DRAFT_398243; third GH5 catalytic domain of 136 kDa three-GH5, double-dockerin CelD; E. coli BL21-Gold(DE3), pMCSG68; N-terminal His/Strep tag cut by TEV for crystallisation; two molecules per asymmetric unit",
  "T1 sequence (A0A1Y1V643 entry or part of it E900A)": "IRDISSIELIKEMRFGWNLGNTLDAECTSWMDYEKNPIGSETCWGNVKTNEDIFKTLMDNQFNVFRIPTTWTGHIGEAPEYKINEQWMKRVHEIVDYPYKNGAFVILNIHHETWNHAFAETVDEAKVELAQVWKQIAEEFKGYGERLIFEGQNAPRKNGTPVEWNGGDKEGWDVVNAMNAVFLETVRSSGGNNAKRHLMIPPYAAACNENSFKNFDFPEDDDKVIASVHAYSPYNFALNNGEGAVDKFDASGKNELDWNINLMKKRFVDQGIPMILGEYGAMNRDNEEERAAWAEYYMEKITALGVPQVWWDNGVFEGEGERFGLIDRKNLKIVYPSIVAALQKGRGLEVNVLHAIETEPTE",
  "assay": "X-ray crystallography, co-crystal, […] Å",
  "format": "binding",
  "details": "inactive acid/base mutant; 10 mM cellotriose added; bound at -3, -2, -1 subsites of active site; 0.1 M sodium acetate, 24% PEG 6000, 16 °C",
  "data": [
    {"compound": "OC[C@H]1O[C@@H](O[C@H]2[C@H](O)[C@@H](O)[C@H](O[C@H]3[C@H](O)[C@@H](O)C(O)O[C@@H]3CO)O[C@@H]2CO)[C@H](O)[C@@H](O)[C@@H]1O", "note": "(stereo partly shown) [cellotriose]", "values": [
      {"measurement": "X-ray crystallography, co-crystal, 1.8 Å", "result": "The complex between the E154A mutant protein and cellotriose was formed by adding the ligand"}
    ]}
  ]
}
